Laboratory results from EPA's CvTdb concentration-time database.
Values joined by “and” are separate entries in the source; they are usually repeats but may differ in a detail not shown here. Equal entries are not always repeated.

Columns and labels:
rat [1] = experiment: concentration in plasma after dosing; conditions: dosed: benzo[a]pyrene, inhalation, duration: 4 hr, F344
rat [2] = experiment: concentration in lung after dosing; conditions: dosed: benzo[a]pyrene, inhalation, duration: 4 hr, F344
rat [3] = experiment: concentration in blood after dosing; conditions: dosed: halothane, 50000 ppm, dermal, duration: 4 hr, male, F344
rat [4] = experiment: concentration in blood after dosing; conditions: dosed: halothane, 50000 ppm, dermal, duration: 4 hr, male, F344; remark: listed apart in the source
rat [5] = experiment: concentration in blood after dosing; conditions: dosed: halothane, 50000 ppm, dermal, duration: 4 hr, male, F344; remark: listed apart in the source
rat [6] = experiment: concentration in blood after dosing; conditions: dosed: halothane, 50000 ppm, dermal, duration: 4 hr, male, F344; remark: listed apart in the source
Rat [7] = experiment: concentration in plasma after dosing; conditions: dosed: Tamoxifen citrate, 0.3 mg/kg, iv, Male, Sprague-Dawley
Rat [8] = experiment: concentration in plasma after dosing; conditions: dosed: Tamoxifen citrate, 0.3 mg/kg, iv, Sprague-Dawley
Rat [9] = experiment: concentration in plasma after dosing; conditions: dosed: Tamoxifen citrate, 0.3 mg/kg, iv, Female, Sprague-Dawley
Rat [10] = experiment: concentration in plasma after dosing; conditions: dosed: Tamoxifen citrate, 0.3 mg/kg, iv, Female, Sprague-Dawley; remark: listed apart in the source
Rat [11] = experiment: concentration in plasma after dosing; conditions: dosed: Tamoxifen citrate, 0.3 mg/kg, iv, Female, Sprague-Dawley; remark: listed apart in the source
Rat [12] = experiment: concentration in plasma after dosing; conditions: dosed: Tamoxifen citrate, 0.3 mg/kg, iv, Male, Sprague-Dawley; remark: listed apart in the source
Rat [13] = experiment: concentration in plasma after dosing; conditions: dosed: Tamoxifen citrate, 0.3 mg/kg, iv, Male, Sprague-Dawley; remark: listed apart in the source
Rat [14] = experiment: concentration in plasma after dosing; conditions: dosed: Tamoxifen citrate, 0.3 mg/kg, iv, Female, Sprague-Dawley; remark: listed apart in the source
Rat [15] = experiment: concentration in plasma after dosing; conditions: dosed: Tamoxifen citrate, 0.3 mg/kg, iv, Male, Sprague-Dawley; remark: listed apart in the source

Oc1ccc2cc3ccc4cccc5ccc(c2c1)c3c45 [9-hydroxy benzo[a]pyrene]
Conditions | concentration in lung, 0.05 h [ng/mL] | concentration in lung, 1 h [ng/mL] | concentration in lung, 2 h [ng/mL] | concentration in lung, 4 h [ng/mL] | concentration in plasma, 0.5 h [ng/mL] | concentration in plasma, 1 h [ng/mL] | concentration in plasma, 2 h [ng/mL] | concentration in plasma, 4 h [ng/mL]
rat [1], 0.1 mg/m^3, female | – | – | – | – | 0.0614 | 0.243 | 0.122 | 0.00678
rat [1], 0.1 mg/m^3, male | – | – | – | – | 0.1 | 0.302 | 0.102 | 0.0105
rat [1], 1 mg/m^3, female | – | – | – | – | 0.339 | 5.95 | 0.303 | 0.00674
rat [1], 1 mg/m^3, male | – | – | – | – | 0.606 | 8.58 | 0.97 | 0.00272
rat [1], 2.5 mg/m^3, female | – | – | – | – | 4.93 | 29.3 | 5.63 | 0.276
rat [1], 2.5 mg/m^3, male | – | – | – | – | 5.6 | 33.1 | 7.14 | 0.363
rat [2], 0.1 mg/m^3, female | 0.389 | 3.61 | 0.814 | 0.209 | – | – | – | –
rat [2], 0.1 mg/m^3, male | 0.387 | 3.82 | 1.62 | 0.206 | – | – | – | –
rat [2], 1 mg/m^3, female | 11.8 | 15.5 | 14.6 | 1.6 | – | – | – | –
rat [2], 1 mg/m^3, male | 4.34 | 14.2 | 4.36 | 2.55 | – | – | – | –
rat [2], 2.5 mg/m^3, female | 23.9 | 52.2 | 12.3 | 1.49 | – | – | – | –
rat [2], 2.5 mg/m^3, male | 21.7 | 48.1 | 8.15 | 3.18 | – | – | – | –

FC(F)(F)C(Cl)Br (stereo not drawn) [halothane]
concentration in blood [ng/mL]
Conditions | 0.5 h | 1 h | 2 h | 3 h | 4 h
rat [3] | 1420 | 2310 | 2600 | 3360 | 2720
rat [4] | 623 | 2040 | 2110 | 2720 | 2190
rat [5] | 3130 | 4930 | 5210 | 5410 | 7710
rat [6] | 1300 | – | 3220 | 3020 | 2520

CC/C(=C(\c1ccccc1)c1ccc(OCCN(C)C)cc1)c1ccccc1 [Tamoxifen, free base]
concentration in plasma [ng/mL]
Conditions | Rat [7] | Rat [9] | Rat [10] | Rat [11] | Rat [12] | Rat [13] | Rat [14] | Rat [15]
0.25 h | 27.8 | – | 19.2 | 9.8 | – | 17.9 | 10.6 | 23.4
0.5 h | 21.3 | – | 16.9 | 7.72 | – | 14 | 11.7 | 17.5
1 h | 12.5 | 11.8 | 12.4 | 6.48 | 5.39 | 9.45 | 7.86 | 11.1
2 h | 7.97 | 6.28 | 8.82 | 6.85 | 5.6 | 5.39 | 6.98 | 6.63
4 h | 4.45 | 4.6 | 4.36 | 5.08 | 5.43 | 13 | 4.36 | 4.12
8 h | – | – | – | – | 4.84 | – | – | –

concentration in plasma, Rat [8]
Conditions | 0.25 h | 0.5 h | 1 h | 2 h | 4 h | 8 h
Female | 7.64 ng/mL and 17.2 ng/mL | 7.57 ng/mL and 13.4 ng/mL | 5.28 ng/mL | – | – | –
Male | 7.83 ng/mL | 8.42 ng/mL | 5.43 ng/mL | 4.66 ng/mL | 5.32 ng/mL | 5.19 ng/mL
